According to ChEMBL document CHEMBL4251578, “Design, synthesis and biological evaluation of novel 2-aminobenzamides containing dithiocarbamate moiety as histone deacetylase inhibitors and potent antitumor agents” (Eur J Med Chem, 2018):
Activity calls are given as the source filed them. No cut-off for these calls is given here.

What was measured:
MGC-803 [1] = assay: Antiproliferative activity against human MGC803 cells at 2 uM after 72 hrs by CCK-8 assay relative to control; type: functional; settings: MGC-803, 72 h
MGC-803 [2] = assay: Antiproliferative activity against human MGC803 cells at 8 uM after 72 hrs by CCK-8 assay relative to control; type: functional; settings: MGC-803, 72 h
A-375 [3] = assay: Antiproliferative activity against human A375 cells at 2 uM after 72 hrs by CCK-8 assay relative to control; type: functional; settings: A-375, 72 h
A-375 [4] = assay: Antiproliferative activity against human A375 cells at 8 uM after 72 hrs by CCK-8 assay relative to control; type: functional; settings: A-375, 72 h
HeLa [5] = assay: Antiproliferative activity against human HeLa cells at 2 uM after 72 hrs by CCK-8 assay relative to control; type: functional
HeLa [6] = assay: Antiproliferative activity against human HeLa cells at 8 uM after 72 hrs by CCK-8 assay relative to control; type: functional
A-375 [7] = assay: Antiproliferative activity against human A375 cells after 72 hrs by CCK-8 assay; type: functional, cell-based; settings: A-375, 72 h
MGC-803 [8] = assay: Antiproliferative activity against human MGC803 cells after 72 hrs by CCK-8 assay; type: functional, cell-based; settings: MGC-803, 72 h
HeLa [9] = assay: Antiproliferative activity against human HeLa cells after 72 hrs by CCK-8 assay; type: functional, cell-based
SMMC-7721 [10] = assay: Antiproliferative activity against human SMMC7721 cells after 72 hrs by CCK-8 assay; type: functional, cell-based; settings: SMMC-7721, 72 h
NCI-H1299 = assay: Antiproliferative activity against human NCI-H1299 cells after 72 hrs by CCK-8 assay; type: functional, cell-based; settings: NCI-H1299, 72 h
HCT-116 = assay: Antiproliferative activity against human HCT116 cells after 72 hrs by CCK-8 assay; type: functional, cell-based; settings: HCT-116, 72 h
SMMC-7721 [11] = assay: Induction of apoptosis in human SMMC7721 cells assessed as viable cells at 0.125 umol/L after 72 hrs by Alexa Fluor 488 Annexin/propidium iodide staining-based flow cytometric analysis (reference value: 97.14%); type: functional; settings: SMMC-7721, 72 h, read-out: Activity
SMMC-7721 [12] = assay: Induction of apoptosis in human SMMC7721 cells assessed as early apoptotic cells at 0.125 umol/L after 72 hrs by Alexa Fluor 488 Annexin/propidium iodide staining-based flow cytometric analysis (reference value: 0.09%); type: functional
SMMC-7721 [13] = assay: Induction of apoptosis in human SMMC7721 cells assessed as late apoptotic cells at 0.125 umol/L after 72 hrs by Alexa Fluor 488 Annexin/propidium iodide staining-based flow cytometric analysis (reference value: 0.29%); type: functional
SMMC-7721 [14] = assay: Induction of apoptosis in human SMMC7721 cells assessed as necrotic cells at 0.125 umol/L after 72 hrs by Alexa Fluor 488 Annexin/propidium iodide staining-based flow cytometric analysis (reference value: 2.48%); type: functional
SMMC-7721 [15] = assay: Induction of apoptosis in human SMMC7721 cells assessed as viable cells at 1 umol/L after 72 hrs by Alexa Fluor 488 Annexin/propidium iodide staining-based flow cytometric analysis (reference value: 97.14%); type: functional; settings: SMMC-7721, 72 h, read-out: Activity
SMMC-7721 [16] = assay: Induction of apoptosis in human SMMC7721 cells assessed as early apoptotic cells at 1 umol/L after 72 hrs by Alexa Fluor 488 Annexin/propidium iodide staining-based flow cytometric analysis (reference value: 0.09%); type: functional
SMMC-7721 [17] = assay: Induction of apoptosis in human SMMC7721 cells assessed as late apoptotic cells at 1 umol/L after 72 hrs by Alexa Fluor 488 Annexin/propidium iodide staining-based flow cytometric analysis (reference value: 0.29%); type: functional
SMMC-7721 [18] = assay: Induction of apoptosis in human SMMC7721 cells assessed as necrotic cells at 1 umol/L after 72 hrs by Alexa Fluor 488 Annexin/propidium iodide staining-based flow cytometric analysis (reference value: 2.48%); type: functional
SMMC-7721 [19] = assay: Induction of apoptosis in human SMMC7721 cells assessed as viable cells at 4 umol/L after 72 hrs by Alexa Fluor 488 Annexin/propidium iodide staining-based flow cytometric analysis (reference value: 97.14%); type: functional; settings: SMMC-7721, 72 h, read-out: Activity
SMMC-7721 [20] = assay: Induction of apoptosis in human SMMC7721 cells assessed as early apoptotic cells at 4 umol/L after 72 hrs by Alexa Fluor 488 Annexin/propidium iodide staining-based flow cytometric analysis (reference value: 0.09%); type: functional
SMMC-7721 [21] = assay: Induction of apoptosis in human SMMC7721 cells assessed as late apoptotic cells at 4 umol/L after 72 hrs by Alexa Fluor 488 Annexin/propidium iodide staining-based flow cytometric analysis (reference value: 0.29%); type: functional
SMMC-7721 [22] = assay: Induction of apoptosis in human SMMC7721 cells assessed as necrotic cells at 4 umol/L after 72 hrs by Alexa Fluor 488 Annexin/propidium iodide staining-based flow cytometric analysis (reference value: 2.48%); type: functional
SMMC-7721 [23] = assay: Cell cycle arrest in human SMMC7721 cells assessed as accumulation of cells at S phase at 0.125 umol/L after 72 hrs by propidium iodide staining-based flow cytometric analysis (reference value: 5.21%); type: functional
SMMC-7721 [24] = assay: Cell cycle arrest in human SMMC7721 cells assessed as accumulation of cells at G2/M phase at 0.125 umol/L after 72 hrs by propidium iodide staining-based flow cytometric analysis (reference value: 14.14%); type: functional
SMMC-7721 [25] = assay: Cell cycle arrest in human SMMC7721 cells assessed as accumulation of cells at G0/G1 phase at 1 umol/L after 72 hrs by propidium iodide staining-based flow cytometric analysis (reference value: 80.65%); type: functional
SMMC-7721 [26] = assay: Cell cycle arrest in human SMMC7721 cells assessed as accumulation of cells at S phase at 1 umol/L after 72 hrs by propidium iodide staining-based flow cytometric analysis (reference value: 5.21%); type: functional
SMMC-7721 [27] = assay: Cell cycle arrest in human SMMC7721 cells assessed as accumulation of cells at G2/M phase at 1 umol/L after 72 hrs by propidium iodide staining-based flow cytometric analysis (reference value: 14.14%); type: functional
SMMC-7721 [28] = assay: Cell cycle arrest in human SMMC7721 cells assessed as accumulation of cells at G0/G1 phase at 4 umol/L after 72 hrs by propidium iodide staining-based flow cytometric analysis (reference value: 80.65%); type: functional
SMMC-7721 [29] = assay: Cell cycle arrest in human SMMC7721 cells assessed as accumulation of cells at S phase at 4 umol/L after 72 hrs by propidium iodide staining-based flow cytometric analysis (reference value: 5.21%); type: functional
SMMC-7721 [30] = assay: Cell cycle arrest in human SMMC7721 cells assessed as accumulation of cells at G2/M phase at 4 umol/L after 72 hrs by propidium iodide staining-based flow cytometric analysis (reference value: 14.14%); type: functional
Histone deacetylase 2 = Histone deacetylase 2 (Homo sapiens, UniProt Q92769); assay: Inhibition of human recombinant HDAC2 using Fluor de Lys-Green as substrate preincubated for 5 mins followed by substrate addition and measured after 1 hr by fluorescence assay
Histone deacetylase 2, sequence (Q92769 whole entry): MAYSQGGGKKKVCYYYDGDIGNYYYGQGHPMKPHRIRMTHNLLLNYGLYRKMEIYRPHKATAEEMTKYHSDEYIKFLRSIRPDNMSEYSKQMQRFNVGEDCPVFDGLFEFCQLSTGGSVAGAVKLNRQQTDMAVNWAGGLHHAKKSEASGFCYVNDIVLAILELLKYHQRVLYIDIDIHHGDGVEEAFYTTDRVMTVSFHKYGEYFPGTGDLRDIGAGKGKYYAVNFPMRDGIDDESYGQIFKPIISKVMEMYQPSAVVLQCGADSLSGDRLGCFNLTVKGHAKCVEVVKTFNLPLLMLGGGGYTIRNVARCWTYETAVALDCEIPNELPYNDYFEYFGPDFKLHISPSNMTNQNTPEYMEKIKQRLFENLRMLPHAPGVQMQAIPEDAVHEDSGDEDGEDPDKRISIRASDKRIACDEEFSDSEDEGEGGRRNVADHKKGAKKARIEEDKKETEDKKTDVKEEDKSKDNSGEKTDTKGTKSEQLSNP

SMMC-7721 [31] = assay: Inhibition of colony formation in human SMMC7721 cells after 7 days by crystal violet staining-based assay; type: functional, cell-based

Row | IC50 (A-375 [7]) [µM] | IC50 (HeLa [9]) [µM] | IC50 (SMMC-7721 [10]) [µM] | IC50 (NCI-H1299) [µM] | Structure (SMILES) | inhibition at 2 µM (MGC-803 [1]) [%] | inhibition at 8 µM (MGC-803 [2]) [%] | inhibition at 2 µM (A-375 [3]) [%] | inhibition at 8 µM (A-375 [4]) [%] | inhibition at 2 µM (HeLa [5]) [%] | inhibition at 8 µM (HeLa [6]) [%] | viability at 0.125 µM (SMMC-7721 [11]) [%] | Activity (SMMC-7721 [12]) [%] | Activity (SMMC-7721 [13]) [%] | Activity (SMMC-7721 [14]) [%] | viability at 1 µM (SMMC-7721 [15]) [%] | Activity (SMMC-7721 [16]) [%] | Activity (SMMC-7721 [17]) [%] | Activity (SMMC-7721 [18]) [%] | viability at 4 µM (SMMC-7721 [19]) [%] | Activity (SMMC-7721 [20]) [%] | further results
1 | 3.67 | 1.6 | 5.97 | 6.74 | Nc1ccccc1NC(=O)c1ccc(CNC(=O)OCc2cccnc2)cc1 [ENTINOSTAT] | 25.3 | 67.2 | 30.2 | 88.7 | 62.2 | 76.6 | 77.5 | 4.56 | 8.41 | 9.56 | 73.9 | 11.21 | 9.64 | 5.22 | 57.3 | 20.06 | IC50 (MGC-803 [8]): 4.89 µM; IC50 (HCT-116): 0.47 µM; Activity (SMMC-7721 [21]): 15.13%; Activity (SMMC-7721 [22]): 7.47%; Activity (SMMC-7721 [23]): 4.54%; Activity (SMMC-7721 [24]): 17.36%; Activity (SMMC-7721 [25]): 79.1%; Activity (SMMC-7721 [26]): 5.35%; Activity (SMMC-7721 [27]): 15.55%; Activity (SMMC-7721 [28]): 71.21%; Activity (SMMC-7721 [29]): 7.55%; Activity (SMMC-7721 [30]): 21.24%
2 | 7.67 | 11.8 | > 26 | 16.3 | Nc1ccc(F)cc1NC(=O)c1ccc(CNC(=O)/C=C/c2cccnc2)cc1 | 7.8 | 54.5 | 21.3 | 54.3 | 14.7 | 41.4 | 78.3 | 6.02 | 11.62 | 4.08 | 73.9 | 4.59 | 10.22 | 11.25 | 74.2 | 5.45 | IC50 (Histone deacetylase 2): 0.37 µM; inhibition (SMMC-7721 [31]): Active; Activity (SMMC-7721 [21]): 17.32%; Activity (SMMC-7721 [22]): 3.06%; Activity (SMMC-7721 [23]): 5.71%; Activity (SMMC-7721 [24]): 17.2%; Activity (SMMC-7721 [25]): 76.07%; Activity (SMMC-7721 [26]): 5.26%; Activity (SMMC-7721 [27]): 18.67%; Activity (SMMC-7721 [28]): 76.41%; Activity (SMMC-7721 [29]): 5.54%; Activity (SMMC-7721 [30]): 18.05%
